{
  "source": "patent US9029414B2",
  "about": "“Triterpenoid compounds and methods of use thereof” (Biotechnology Research Corporation, priority 2008, dated 2015)",
  "key": {"TP receptor": {"target": "TP receptor (Homo sapiens, UniProt P21731)", "sequence (P21731 whole entry)": "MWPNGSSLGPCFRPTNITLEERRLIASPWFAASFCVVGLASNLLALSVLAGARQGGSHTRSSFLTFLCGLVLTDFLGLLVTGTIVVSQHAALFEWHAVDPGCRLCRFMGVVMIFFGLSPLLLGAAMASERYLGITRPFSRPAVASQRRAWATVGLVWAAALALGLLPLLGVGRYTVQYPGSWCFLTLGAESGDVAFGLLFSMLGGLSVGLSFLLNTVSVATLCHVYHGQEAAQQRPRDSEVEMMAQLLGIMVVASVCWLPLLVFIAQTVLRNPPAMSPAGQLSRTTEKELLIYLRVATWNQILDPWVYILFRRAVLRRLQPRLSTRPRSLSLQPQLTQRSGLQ", "assay": "Radioligand competition binding assay, TP", "conditions": "target Thromoboxanes A, compound at 10 μM in duplicate, read-out: % inhibition of control specific binding", "protocol": "DA001 was further evaluated against 32 receptor binding assays. Radioligand competition assays were conducted whereby DA001 was tested at one concentration (10 uM) in duplicate. […] It could compete with the radioligand [^3H] PGE2 binding at the EP1 and EP4 receptors, and weakly competed with the EP2 and FP receptors.\nTo determine the targets of DA compounds, the compound was assessed in binding assays for the family of prostanoid receptors. Both compounds were tested at a single concentration (10 μM) in duplicate. DA001 and DA021 inhibit the ligand binding of prostaglandin E2 receptors EP1, EP2 and EP4 and moderately to prostaglandin (PGF) to its receptor (FP), but not prostaglandin I (PGI2), thromoboxane A and prostaglandin D2 to their receptors."}, "cortical neurons": {"test_system": "cortical neurons", "assay": "Cortical neuron survival assay against glutamate excitotoxicity (LDH)", "type": "cell-based, Sprague-Dawley rats", "conditions": "30 μM 24 hrs, glutamate 10-200 μM 20 min; at high concentrations of glutamate", "protocol": "Hippocampal neurons/cortical neurons were prepared from embryonic day 18 Sprague-Dawley rats. After the cortices had been removed from the brain, isolated cells were plated onto Poly d-Lysine (PDL) (P0899, Sigma)-coated 48 well plates (150687, NUNC) at a density of 2×10^5 cell per well using Neurobasal Medium (NB) (21103-049, Gibco) with B27 supplement (17504-044, Gibco), penicillin/streptomycin (15140, Gibco) and 1 mM L-glutamine (25030, Gibco). The cell culture was incubated at 37° C. in a humidified atmosphere of 5% CO2 in air. Medium was changed to growth medium (Neurobasal Medium with penicillin/streptomycin and B27 supplement) after 3 hours. Half medium was changed with growth medium every 2-3 days to maintain the cells until day 10 in vitro (DIV 10). Serial dilutions of samples were prepared in growth medium and DMSO was used as vehicle control. For pre-treating assay, half of the medium was removed from wells, and equal amount of diluted samples were replaced. Cells were then incubated for 2 hours at 37° C. in a humidified atmosphere of 5% CO2 in air. […] Afterwards, cells were incubated in growth medium for 18-24 hours and detected with Cytotoxicity Detection Kit (1644793, Roche).\nCortical neurons were pre-treated with DA021 or DA034 and subsequently subjected to varying concentrations of glutamate (10-200 μM). […] LDH release into the medium was then measured."}, "EP4 receptor": {"target": "EP4 receptor (Homo sapiens, UniProt P35408)", "sequence (P35408 whole entry)": "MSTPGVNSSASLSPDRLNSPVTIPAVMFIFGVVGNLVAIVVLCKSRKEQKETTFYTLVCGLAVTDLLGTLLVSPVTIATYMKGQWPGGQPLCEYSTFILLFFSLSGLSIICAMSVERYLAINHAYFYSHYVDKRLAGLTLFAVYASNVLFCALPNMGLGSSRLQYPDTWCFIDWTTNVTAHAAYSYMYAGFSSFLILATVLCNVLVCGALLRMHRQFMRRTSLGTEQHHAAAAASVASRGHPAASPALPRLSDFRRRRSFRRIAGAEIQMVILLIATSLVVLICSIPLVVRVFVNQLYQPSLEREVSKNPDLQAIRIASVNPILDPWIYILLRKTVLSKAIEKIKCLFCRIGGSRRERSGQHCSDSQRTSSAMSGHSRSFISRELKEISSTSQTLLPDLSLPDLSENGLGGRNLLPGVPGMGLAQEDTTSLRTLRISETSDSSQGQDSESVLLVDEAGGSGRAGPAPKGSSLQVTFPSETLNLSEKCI", "assay": "Cellular receptor functional assay (cAMP), EP4", "type": "cell-based", "parameters": "expressed in transfected cells; host or cells: CHO cells", "conditions": "for Antagonist effect, cAMP measurement: in presence of PGE2", "protocol": "FIG. 13. […] A: Cellular functional assay for EP2; B: Cellular functional assay for […].\nTo determine whether the inhibitory effect of DA001 on the ligand binding to EP receptors results from agonist or antagonist activity, DA001 was evaluated at a single concentration (10 μM) on cellular-specific receptor functional assays. Upon ligand binding, the EP receptors are activated which leads to an increase in intracellular cyclic AMP.\nDA001 (10 μM) was subjected to ligand binding assay with the human EP1 or EP4 receptor over-expressing CHO cells. Results are expressed as a percent of control specific agonist response [100-(measured specific response/control specific agonist response)×100] obtained in the presence of DA001.\nDA001 was evaluated at 6 concentrations in cellular assays assessing receptor function. Upon ligand binding, the EP2 and EP4 receptor is activated which leads to an increase in intracellular cyclic AMP.\nDA021 inhibits PGE2 ligand binding to EP1, EP2 and EP4 receptors. To determine whether the inhibitory effect is due to agonist or antagonist activity, DA021 was evaluated and compared at 1 concentration (30 uM) in cellular assays assessing receptor function. Upon ligand binding, the EP receptors are activated which leads to an increase in intracellular cyclic AMP."}},
  "data": [
    {"compound": "C=C(C)[C@@H]1CC[C@]2(/C=N/O)CC[C@]3(C)C(CCC4[C@@]5(C)CCC(=O)[C@@](C)(CO)[C@@H]5CC[C@]43C)C12", "note": "(some centres unmarked) [DA021]", "values": [
      {"measurement": "inhibition at 10 µM", "setting": "TP receptor", "value": 17, "unit": "%"},
      {"measurement": "cell death (LDH release) vs DMSO control", "setting": "cortical neurons", "value": "significant reduction in cell death"},
      {"measurement": "Antagonist effect, cAMP measurement", "setting": "EP4 receptor; EP4 receptor, 30 uM", "value": 18}
    ]},
    {"compound": "C=C(C)[C@@H]1CC[C@]2(C(=O)O)CC[C@]3(C)C(CC[C@@H]4[C@@]5(C)CC[C@H](O[C@@H]6OC[C@H](O)[C@H](O)[C@H]6O[C@@H]6O[C@@H](C)[C@H](O)[C@@H](O)[C@H]6O)[C@@](C)(CO)[C@@H]5CC[C@]43C)[C@@H]12", "note": "(stereo partly drawn) [DA001, 3-O-[α-L-rhamnopyranosyl-(1→2)-α-L-arabinopyranosyl]-3,23-dihydroxy-20(29)-lupen-28-oic acid]", "values": [
      {"measurement": "inhibition at 10 µM", "setting": "TP receptor", "value": 17, "unit": "%"},
      {"measurement": "Agonist effect, cAMP measurement", "setting": "EP4 receptor; EP4 receptor, 10 μM", "value": "−11", "unit": "%"},
      {"measurement": "Antagonist effect, cAMP measurement", "setting": "EP4 receptor; EP4 receptor, 10 μM", "value": 41, "unit": "%"},
      {"measurement": "IC50", "setting": "EP4 receptor; inhibition of PGE2-induced cAMP increase, 6 concentrations, read-out: IC50, antagonist effect", "value": 20, "unit": "µM"}
    ]},
    {"compound": "CC(=O)OC[C@]12CC[C@@H](C3(C)CO3)C1C1CCC3[C@@]4(C)CC[C@H](O)[C@@](C)(CO)[C@@H]4CC[C@@]3(C)[C@]1(C)CC2", "note": "(some centres unmarked) [DA034]", "values": [
      {"measurement": "cell death (LDH release) vs DMSO control", "setting": "cortical neurons", "value": "significant reduction in cell death"}
    ]}
  ]
}
